Measured values as given in US11117894B2, “Pyridopyrazine compounds and uses thereof” (CITY OF HOPE, priority 2017, dated 2021).

What was measured:
[1] = test system: A2058 melanoma; experiment: MTS cell viability assay, A2058 melanoma cell line; format: cell-based; settings: 48 h; for IC50: Homo sapiens, MTS; for Viability % CTL A2058 melanoma: Table 1, screened at 10 μM; for Viability (% CTL) at 10 μM A2058 melanoma: Table 2, 10 μM; for Viability % CTL A2058 melanoma (10 μM): Table 4, 10 μM
Experimental: (§1) MTS assays were performed for cell viability. To determine if novel pyridopyrazine derivatives have antitumor activities, compounds were screened at 10 μM final concentration with A2058 melanoma and DU145 prostate cancer cell lines. Compounds #16 and #17 were selected to determine IC50 values against lung cancer cell lines, including A549, DMS273, H69, H513, H2461, DMS114, H358 and H2596. In this assay, cells (5000/well) were seeded in 96-well plates, incubated overnight at 37° C. in 5% CO2, and exposed to 10 μM of compounds or in a dose-dependent manner for 48 h. After 48 h treatment with compounds, MTS dye (20 μL/well) was added to 96-well plates. Viable cell numbers were determined by tetrazolium conversion to its formazan dye. Absorbance was measured at 490 nm using an automated ELISA plate reader. Dimethyl sulfoxide (DMSO) was used as the vehicle control. Each experiment was conducted in triplicate. IC50 values were determined using CalcuSyn software (Biosoft).

[2] = test system: DU145 prostate cancer; experiment: MTS cell viability assay, DU145 prostate cancer cell line; format: cell-based; settings: 48 h; for IC50: Homo sapiens, DU-145, DU145 prostate cancer, MTS; for Viability % CTL DU145 prostate: Table 1, screened at 10 μM; for Viability (% CTL) at 10 μM DU145 prostate: Table 2; for Viability % CTL DU145 prostate (10 μM ): Table 4
Experimental: as §1

[3] = test system: A549 NSCLC; experiment: MTS cell viability assay, A549 lung cancer cell line; format: cell-based; settings: Homo sapiens, 48 h
Experimental: as §1

[4] = test system: DMS273 small cell lung cancer; experiment: MTS cell viability assay, DMS273 lung cancer cell line; format: cell-based; settings: Homo sapiens, DMS-273, 48 h
Experimental: as §1

[5] = test system: H69 small cell lung cancer; experiment: MTS cell viability assay, H69 lung cancer cell line; format: cell-based; settings: 48 h
Experimental: as §1

[6] = test system: H513 NSCLC; experiment: MTS cell viability assay, H513 lung cancer cell line; format: cell-based; settings: 48 h
Experimental: as §1

[7] = test system: H2461 NSCLC; experiment: MTS cell viability assay, H2461 lung cancer cell line; format: cell-based; settings: 48 h
Experimental: as §1

[8] = test system: DMS114 small cell lung cancer; experiment: MTS cell viability assay, DMS114 lung cancer cell line; format: cell-based; settings: Homo sapiens, DMS-114, 48 h
Experimental: as §1

[9] = test system: H358 NSCLC; experiment: MTS cell viability assay, H358 lung cancer cell line; format: cell-based; settings: Homo sapiens, NCI-H358, 48 h
Experimental: as §1

[10] = test system: H2596 NSCLC; experiment: MTS cell viability assay, H2596 lung cancer cell line; format: cell-based; settings: 48 h
Experimental: as §1

Cc1nc2nc(Nc3ccccc3)cnc2cc1NC(=O)Nc1cccc(C(F)(F)F)c1 [Compound 16, 1-(6-Methyl-3-(phenylamino)pyrido[2,3-b]pyrazin-7-yl)-3-(3-(trifluoromethyl)phenyl)urea]
IC50 [1]: 1290 nM
Viability % CTL A2058 melanoma [1]: 4 % CTL
IC50 [2]: 1720 nM
Viability % CTL DU145 prostate [2]: 10 % CTL
IC50 [3]: 1540 nM
IC50 [4]: 1090 nM
IC50 [5]: 980 nM
IC50 [6]: 1260 nM
IC50 [7]: 1710 nM
IC50 [8]: 3150 nM
IC50 [9]: 1970 nM
IC50 [10]: 1070 nM

Cc1nc2nc(Nc3ccccc3)cnc2cc1NC(=O)c1ccc(N)cc1 [Compound 13, 4-Amino-N-(6-methyl-3-(phenylamino)pyrido[2,3-b]pyrazin-7-yl)benzamide]
Viability (% CTL) at 10 μM A2058 melanoma [1]: 84 % CTL
Viability (% CTL) at 10 μM DU145 prostate [2]: 77 % CTL
melting point: 265 °C

Cc1nc2nc(Nc3ccccc3)cnc2cc1NC(=O)Nc1ccc(F)c(Cl)c1 [Compound 17, 1-(3-Chloro-4-fluorophenyl)-3-(6-methyl-3-(phenylamino)pyrido[2,3-b]pyrazin-7-yl)urea]
IC50 [1]: 1130 nM
Viability % CTL A2058 melanoma [1]: 2 % CTL
IC50 [2]: 1040 nM
Viability % CTL DU145 prostate [2]: 0 % CTL
IC50 [3]: 920 nM
IC50 [4]: 320 nM
IC50 [5]: 510 nM
IC50 [6]: 690 nM
IC50 [7]: 800 nM
IC50 [8]: 720 nM
IC50 [9]: 1180 nM
IC50 [10]: 620 nM

Cc1nc2nc(Nc3ccccc3)cnc2cc1N [Compound 7, 6-Methyl-N^3-phenylpyrido[2,3-b]pyrazine-3,7-diamine]
Viability (% CTL) at 10 μM A2058 melanoma [1]: 98 % CTL
Viability (% CTL) at 10 μM DU145 prostate [2]: 76 % CTL
melting point: > 300 °C (dec.)

Cc1nc2nc(Nc3ccccc3)cnc2cc1NC(=O)c1ccc(NC(=O)Nc2ccccc2)cc1 [Compound 14, N-(6-Methyl-3-(phenylamino)pyrido[2,3-b]pyrazin-7-yl)-4-(3-phenylureido)benzamide]
Viability (% CTL) at 10 μM A2058 melanoma [1]: 75 % CTL
Viability (% CTL) at 10 μM DU145 prostate [2]: 80 % CTL

Cc1nc2nccnc2cc1NC(=O)c1ccc(Br)cc1F [Compound 10A]
Viability % CTL A2058 melanoma [1]: 93 % CTL
Viability % CTL DU145 prostate [2]: 95 % CTL

Cc1nc2nccnc2cc1NC(=O)c1ccc([N+](=O)[O-])cc1 [Compound 11A]
Viability % CTL A2058 melanoma [1]: 87 % CTL
Viability % CTL DU145 prostate [2]: 106 % CTL

COc1cc(Nc2cnc3cc(NC(=O)Nc4cccc(C(F)(F)F)c4)c(C)nc3n2)cc(OC)c1OC [Compound 34, 1-(6-Methyl-3-((3,4,5-trimethoxyphenyl)amino)pyrido[2,3-b]pyrazin-7-yl)-3-(3-(trifluoromethyl)phenyl)urea]
Viability % CTL A2058 melanoma (10 μM) [1]: 116 % CTL
Viability % CTL DU145 prostate (10 μM ) [2]: 81 % CTL

Cc1nc2nc(Nc3ccccc3)cnc2cc1NC(=O)c1ccccc1 [Compound 8, N-(6-Methyl-3-(phenylamino)pyrido[2,3-b]pyrazin-7-yl)benzamide]
Viability (% CTL) at 10 μM A2058 melanoma [1]: 81 % CTL
Viability (% CTL) at 10 μM DU145 prostate [2]: 90 % CTL

CCN(CC)CCNCC(=O)Nc1cc2ncc(Nc3ccccc3)nc2nc1C [Compound 27E]
Viability (% CTL) at 10 μM A2058 melanoma [1]: 85 % CTL
Viability (% CTL) at 10 μM DU145 prostate [2]: 82 % CTL

Cc1nc2nccnc2cc1NC(=O)CN(C)C [Compound 14A]
Viability % CTL A2058 melanoma [1]: 106 % CTL
Viability % CTL DU145 prostate [2]: 101 % CTL

CC(=O)Nc1ccc(Nc2cnc3cc(NC(=O)Nc4cccc(C(F)(F)F)c4)c(C)nc3n2)cc1 [Compound 33, N-(4-((6-Methyl-7-(3-(3-(trifluoromethyl)phenyl)ureido)pyrido[2,3-b]pyrazin-3-yl)amino)phenyl)acetamide]
Viability % CTL A2058 melanoma (10 μM) [1]: 109 % CTL
Viability % CTL DU145 prostate (10 μM ) [2]: 55 % CTL

Cc1ccc(S(=O)(=O)Nc2cc3nccnc3nc2C)cc1 [Compound 19A]
Viability % CTL A2058 melanoma [1]: 59 % CTL
Viability % CTL DU145 prostate [2]: 122 % CTL

Cc1nc2nc(Sc3ccccc3)cnc2cc1NC(=O)c1cccc(C(F)(F)F)c1 [Compound 15B]
Viability % CTL A2058 melanoma [1]: 61 % CTL
Viability % CTL DU145 prostate [2]: 113 % CTL
